From patent publication US10501518B2 (priority 2013, dated 2019)
Read-outs that look alike come from different tables or passages of the source.

Columns and labels:
RG form of human PTHR-1 = biological target: T1, RG form of human PTHR-1 (Homo sapiens, UniProt Q03431); assay: Radio-ligand competition binding to RG form of human PTHR-1 (COS-7 membranes, 125I-M-PTH(1-15) tracer, high affinity Gαs mutant)
T1 construct: expressed in transfected cells; host or cells: COS-7
T1 sequence (Q03431 27-593): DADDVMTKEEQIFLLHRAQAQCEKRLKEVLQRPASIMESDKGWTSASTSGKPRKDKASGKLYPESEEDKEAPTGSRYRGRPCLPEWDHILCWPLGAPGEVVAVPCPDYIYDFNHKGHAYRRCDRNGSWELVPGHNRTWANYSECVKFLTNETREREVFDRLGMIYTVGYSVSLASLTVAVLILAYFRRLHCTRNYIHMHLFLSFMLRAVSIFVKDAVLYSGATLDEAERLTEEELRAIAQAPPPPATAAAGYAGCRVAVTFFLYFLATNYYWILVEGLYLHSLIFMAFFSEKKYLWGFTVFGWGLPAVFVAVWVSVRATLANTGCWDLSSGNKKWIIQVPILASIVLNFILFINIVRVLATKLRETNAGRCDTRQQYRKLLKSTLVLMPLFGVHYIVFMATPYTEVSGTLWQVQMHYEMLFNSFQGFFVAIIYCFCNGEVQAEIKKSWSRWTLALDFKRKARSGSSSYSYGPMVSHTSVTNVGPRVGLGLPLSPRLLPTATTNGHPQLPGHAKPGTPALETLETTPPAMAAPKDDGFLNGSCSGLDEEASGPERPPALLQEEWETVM
Excerpt: (§1) Data are means (±SEM) of n≥4 experiments, each performed in duplicate.

RG form of rat PTHR-1 = biological target: T2, RG form of rat PTHR-1 (Rattus norvegicus, UniProt P25961); assay: Radio-ligand competition binding to RG form of rat PTHR-1
T2 construct: expressed in transfected cells; host or cells: COS-7
T2 sequence (P25961 27-591): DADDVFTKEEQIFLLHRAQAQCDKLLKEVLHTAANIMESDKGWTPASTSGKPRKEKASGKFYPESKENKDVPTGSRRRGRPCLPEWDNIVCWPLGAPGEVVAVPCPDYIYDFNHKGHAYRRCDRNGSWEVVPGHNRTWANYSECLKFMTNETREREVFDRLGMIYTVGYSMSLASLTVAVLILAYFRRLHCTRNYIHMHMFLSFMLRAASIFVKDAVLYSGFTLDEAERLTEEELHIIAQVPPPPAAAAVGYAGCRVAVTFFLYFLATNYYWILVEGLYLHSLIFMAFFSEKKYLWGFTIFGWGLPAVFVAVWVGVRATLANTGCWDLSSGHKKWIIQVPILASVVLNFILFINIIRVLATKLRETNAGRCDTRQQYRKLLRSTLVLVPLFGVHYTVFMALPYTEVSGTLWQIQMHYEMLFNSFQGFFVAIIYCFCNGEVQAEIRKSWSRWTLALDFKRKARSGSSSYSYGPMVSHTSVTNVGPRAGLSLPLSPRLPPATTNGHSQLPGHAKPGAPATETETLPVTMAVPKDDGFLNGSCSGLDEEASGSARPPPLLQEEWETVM
Excerpt: as §1

rPTHR-1 = biological target: T3, rPTHR-1 (Rattus norvegicus, UniProt P25961); assay: Washout assay of cAMP response in GR-35 cells; assay type: cell-based; conditions: for AUC-on / AUC-washout / AUC Ratio: Table 11; for AUC-on: luminescence AUC in the 14 minutes before washout, PTH(1-34), D6, M-PTH(1-34) 0.3 nM, B5 3 nM; for AUC-washout: luminescence AUC in the 120 minutes following washout; for AUC Ratio: ratio of AUC-washout to AUC-on; for cAMP response following washout, in words: rPTHR-1-expressing cells, relative to PTH(1-34)
T3 construct: expressed in transfected cells
T3 sequence (P25961 27-591): T2 sequence (P25961 27-591)
Description: FIGS. 11A and 11B present the results of rPTHR-1 washout experiments. Assays of cAMP accumulation were performed using HEK-293-derived cell lines stably transfected to express the luciferase-based cAMP GloSensor™-brand protein along with WT-rPTHR-1 (GR-35 cells). Data are means (±SEM) of n=3 (M-PTH) or n=5 experiments, each performed in quadruplicate. […] Ligand was applied and luminescence was recorded for 14 minutes thereafter. FIG. 11B depicts data for the accumulation of cAMP following ligand wash-out in cells expressing the rPTHR-1. The cells from FIG. 11A were removed from the plate reader at the end of the 14-min “ligand-on” phase, rinsed twice to remove unbound ligand, treated with fresh medium containing luciferin, and luminescence was again recorded for an additional 120 min of “wash-out.” Luminescence was recorded using a PerkinElmer Envision plate reader; cells were preloaded with luciferin for 30 min before ligand addition.
HEK293 cell monolayers expressing rat PTHR-1 (GR35 cells) were treated with ligand in for 14 minutes. This buffer was then discarded, and the cell monolayer was rinsed (2×). Buffer containing luciferin was introduced for 120 minutes. Luminescence response was recorded before and after washout, with luminescence readings recorded every 2 minutes. The area under the curve (AUC) for luminescence response curve was determined using GraphPad Prism. See […] for a graphs depicting the average of n=3 (M-PTH) or n=5 washout experiments. See Table 11 for a description of composite data from n=3 or 5 washout experiments.
Data were processed by using the Microsoft Excel and GraphPad Prism 4.0 software packages. Data from binding and cAMP dose-response assays were analyzed using a sigmoidal dose-response model with variable slope. Washout responses were assessed by quantifying the area under the luminescence response curve (AUC) following washout. Post-washout AUC was normalized by dividing the post-washout AUC by the pre-washout AUC. Paired data sets were statistically compared by using Student's t test (two-tailed) assuming unequal variances for the two sets.

[1] = Table 2, read-out: RG IC50, nM, Binding (rPTHR-1)

IC50 (RG form of human PTHR-1; Table 1, 125I-M-PTH(1-15) tracer, Gαs mutant, read-out: RG IC50, nM, Binding (hPTHR-1))	IC50 (RG form of rat PTHR-1; Table 5, rat PTHR-1, mean ± SEM, read-out: RG -log (IC50) (converted))	AUC-on (rPTHR-1)	AUC-washout (rPTHR-1)	SMILES	IC50 (RG form of rat PTHR-1; [1])	AUC Ratio (rPTHR-1)	cAMP response following washout, in words (rPTHR-1)	IC50 (RG form of human PTHR-1)
0.086 nM	4.27 nM	130,000 ± 50,000	84,000 ± 23,000	CC[C@H](C)[C@H](NC(=O)[C@H](CCC(=O)O)NC(=O)[C@H](CO)NC(=O)[C@@H](NC(=O)[C@@H](N)CO)C(C)C)C(=O)N[C@@H](CCC(N)=O)C(=O)N[C@@H](CC(C)C)C(=O)N[C@@H](CCSC)C(=O)N[C@@H](Cc1c[nH]cn1)C(=O)N[C@@H](CC(N)=O)C(=O)N[C@@H](CC(C)C)C(=O)NCC(=O)N[C@@H](CCCCN)C(=O)N[C@@H](Cc1c[nH]cn1)C(=O)N[C@@H](CC(C)C)C(=O)N[C@@H](CC(N)=O)CC(=O)N[C@@H](CO)C(=O)N[C@@H](CCSC)C(=O)N[C@@H](CCC(=O)O)C(=O)N[C@@H](CCCNC(=N)N)CC(=O)N[C@H](C(=O)N[C@@H](CCC(=O)O)C(=O)N[C@@H](Cc1c[nH]c2ccccc12)C(=O)N[C@H](CC(=O)N[C@@H](CCCNC(=N)N)C(=O)N[C@@H](CCCCN)C(=O)N[C@@H](CCCCN)C(=O)N[C@H](CC(=O)N[C@@H](CCC(N)=O)C(=O)N[C@@H](CC(=O)O)C(=O)N[C@H](C(=O)N[C@@H](CCC(N)=O)CC(=O)N[C@@H](CC(N)=O)C(=O)N[C@@H](Cc1ccccc1)C(N)=O)C(C)C)CC(C)C)CC(C)C)C(C)C [B5]	4.2 nM	0.80 ± 0.16	short-lived cAMP response	
		92,000 ± 34,000	100,000 ± 25,000	CC[C@H](C)[C@H](NC(=O)[C@H](CCC(=O)O)NC(=O)[C@H](CO)NC(=O)[C@@H](NC(=O)[C@@H](N)CO)C(C)C)C(=O)N[C@@H](CCC(N)=O)C(=O)N[C@@H](CC(C)C)C(=O)N[C@@H](CCSC)C(=O)N[C@@H](Cc1cnc[nH]1)C(=O)N[C@@H](CC(N)=O)C(=O)N[C@@H](CC(C)C)C(=O)NCC(=O)N[C@@H](CCCCN)C(=O)N[C@@H](Cc1cnc[nH]1)C(=O)N[C@@H](CC(C)C)C(=O)N[C@@H](CC(N)=O)C(=O)N[C@@H](CO)C(=O)N[C@@H](CCSC)C(=O)N[C@@H](CCC(=O)O)C(=O)N[C@@H](CCCN=C(N)N)C(=O)N[C@H](C(=O)N[C@@H](CCC(=O)O)C(=O)N[C@@H](Cc1c[nH]c2ccccc12)C(=O)N[C@@H](CC(C)C)C(=O)N[C@@H](CCCN=C(N)N)C(=O)N[C@@H](CCCCN)C(=O)N[C@@H](CCCCN)C(=O)N[C@@H](CC(C)C)C(=O)N[C@@H](CCC(N)=O)C(=O)N[C@@H](CC(=O)O)C(=O)N[C@H](C(=O)N[C@@H](Cc1cnc[nH]1)C(=O)N[C@@H](CC(N)=O)C(=O)N[C@@H](Cc1ccccc1)C(=O)O)C(C)C)C(C)C [PTH(1-34), reference compound]				

SMILES	IC50 (RG form of human PTHR-1; Table 1, 125I-M-PTH(1-15) tracer, Gαs mutant, read-out: RG IC50, nM, Binding (hPTHR-1))	IC50 (RG form of rat PTHR-1; Table 5, rat PTHR-1, mean ± SEM, read-out: RG -log (IC50) (converted))	AUC-on (rPTHR-1)	AUC-washout (rPTHR-1)	IC50 (RG form of rat PTHR-1; [1])	AUC Ratio (rPTHR-1)	cAMP response following washout, in words (rPTHR-1)	IC50 (RG form of human PTHR-1)
CC[C@H](C)[C@H](NC(=O)[C@H](CCC(=O)O)NC(=O)[C@H](CO)NC(=O)[C@@H](NC(=O)[C@@H](N)CO)C(C)C)C(=O)N[C@@H](CCC(N)=O)C(=O)N[C@@H](CC(C)C)C(=O)N[C@@H](CCSC)C(=O)N[C@@H](Cc1cnc[nH]1)C(=O)N[C@@H](CC(N)=O)C(=O)N[C@@H](CC(C)C)C(=O)NCC(=O)N[C@@H](CCCCN)C(=O)N[C@H](CC(=O)N[C@@H](CC(C)C)C(=O)N[C@@H](CC(N)=O)C(=O)N[C@@H](CO)C(=O)N[C@@H](CCSC)CC(=O)N[C@@H](CCC(=O)O)C(=O)N[C@@H](CCCNC(=N)N)C(=O)N[C@H](C(=O)N[C@@H](CCC(=O)O)CC(=O)N[C@@H](Cc1c[nH]c2ccccc12)C(=O)N[C@@H](CC(C)C)C(=O)N[C@@H](CCCNC(=N)N)C(=O)N[C@@H](CCCCN)CC(=O)N[C@@H](CCCCN)C(=O)N[C@@H](CC(C)C)C(=O)N[C@@H](CCC(N)=O)C(=O)N[C@@H](CC(=O)O)CC(=O)N[C@H](C(=O)N[C@@H](Cc1cnc[nH]1)C(=O)N[C@@H](CC(N)=O)C(=O)N[C@H](CC(N)=O)Cc1ccccc1)C(C)C)C(C)C)Cc1c[nH]c2ccccc12 [D6]			100,000 ± 36,000	130,000 ± 37,000	0.81 nM	1.50 ± 0.35	comparable to that of PTH(1-34)	0.065 nM
